According to patent publication US10519169B2, “3-(1H-pyrrolo[2,3-C]pyridin-2-yl)-1 H-pyrazolo[4,3-B]pyridines and therapeutic uses thereof” (Samumed, LLC, priority 2015, dated 2019):

Experiments:
Format in all cases: cell-based
IL-6 = IL-6 inhibition in LPS-stimulated THP-1 cells (HTRF); conditions: Homo sapiens; for EC50: LPS 500 ng/mL, 22 hours, IL6 HTRF; for inhibition at 10 µM: given for EC50 >10 μM, LPS, IL6, at 10 M [sic], read-out: percent inhibition at 10 M
How it was run: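 THP-1 monocytes, serum-reduced (1% FBS) for 24 h, were preincubated 2 h with compound at 0.1% DMSO (10-point, 1:3 dilutions from 10 μM), then stimulated with 500 ng/mL LPS for 22 h at 37 °C. IL-6 was quantified by HTRF (665/620 nm ratio), normalized to DMSO. EC50 came from 4-parameter regression, or % inhibition at 10 μM.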

SW480 colon cancer cells = assay: Cell viability assay (CellTiter-Blue), SW480 cells; conditions: Homo sapiens, 96 h, four days, CellTiter-Blue
How it was run: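 SW480 cells (~2×10^3/well) exposed to compound for four days at 37 °C/5% CO2, 1:3 8-point dilutions […]. Viability read by CellTiter-Blue resazurin reduction (~3 h, Ex 560/Em 590 nm); EC50 by non-linear regression, with % inhibition at 10 μM given when EC50 >10 μM.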

[1] = system: primary human mesenchymal stem cells (hMSCs); assay: Chondrogenesis induction in hMSCs (chondrogenic nodules); conditions: 144 h, 6 days; for EC50: concentration required to induce 50% levels of chondrogenesis vs TGF-β3, read-out: Conc (nM) of 50% TGF-β3 activity; for Emax: nodules, relative to TGF-β3 positive control (10 ng/mL), read-out: Max. Activity as % TGF-β3 activity
Protocol: Representative compounds were screened using primary human mesenchymal stem cells (hMSCs) to determine their ability to induce chondrogenesis (process by which cartilage is developed).
Primary human mesenchymal stem cells (hMSCs) were purchased from Lonza (Walkersville, Md.) and expanded in Mesenchymal Stem Cell Growth Media (Lonza). Cells between passage 3 and 6 were used for the experiments.
Each compound was dissolved in DMSO as a 10 mM stock and used to prepare compound source plates. Serial dilution (1:3, 6-point dose-response curves from 2700 nM to 10 nM) and compound transfer was performed using the ECHO 550 (Labcyte, Sunnyvale, Calif.) into 96-well clear bottom assay plates (Greiner Bio-One) with appropriate DMSO backfill for a final DMSO concentration of 0.03%. hMSCs were plated at 20,000 cells/well in 250 μL/well Incomplete Chondrogenic Induction Medium (Lonza; DMEM, dexamethasone, ascorbate, insulin-transferrin-selenium [ITS supplement], gentamycin-amphotericin [GA-1000], sodium pyruvate, proline and L-glutamine). TGF-03 (10 ng/mL) was used as a positive control for differentiation while negative control wells were treated with 75 nL DMSO for normalization and calculating EC50 values. Cells were incubated at 37° C. and 5% CO2 for 6 days. To image chondrogenic nodules, the cells were fixed using 4% formaldehyde (Electron Microscopy Sciences), and stained with 2 μg/mL Rhodamine B (Sigma-Aldrich) and 20 μM Nile Red (Sigma-Aldrich) [Johnson K., et. al, A Stem Cell-Based Approach to Cartilage Repair, Science, (2012), 336(6082), 717-721]. The nodules imaged (4 images per well at 4× magnification) by excitation at 531 nm and emission at 625 nm and quantified using the CellInsight CX5 (Thermo Scientific). Number of nodules in each well was normalized to the average of 3 DMSO treated wells on the same plate using Excel (Microsoft Inc.). The normalized averages (fold change over DMSO) of 3 replicate wells for each compound concentration were calculated. Due to solubility limitations of some of the compounds, curve fitting was incomplete leading to inaccurate EC50 determinations.
Using TGF-β3 as a positive control, the concentration of representative compounds required to induce 50% levels of chondrogenesis is reported. In addition, the maximum activity of each compound and the respective dose that each compound reached maximum chondrogenesis activity is reported.

SMILES	EC50 (IL-6) [nM]	EC50 (SW480 colon cancer cells) [µM]	EC50 [1] [nM]	Emax [1] [%]	inhibition at 10 µM (IL-6) [%]
O=C(Nc1cncc(-c2ccc3[nH]nc(-c4cc5ccncc5[nH]4)c3n2)c1)C1CCCC1 [Compound 274, N-(5-(3-(1H-Pyrrolo[2,3-c]pyridin-2-yl)-1H-pyrazolo[4,3-b]pyridin-5-yl)pyridin-3-yl)cyclopentanecarboxamide]	235	3.12	30	50	–
Cc1ccncc1-c1ccc2[nH]nc(-c3cc4c(-c5ccc(F)cc5)cncc4[nH]3)c2n1 [Compound 33, 3-(4-(4-Fluorophenyl)-1H-pyrrolo[2,3-c]pyridin-2-yl)-5-(4-methylpyridin-3-yl)-1H-pyrazolo[4,3-b]pyridine]	> 10000	1.86	–	28	37.8
Cc1ccncc1-c1ccc2[nH]nc(-c3cc4c(-c5cccnc5)cncc4[nH]3)c2n1 [Compound 89, 5-(4-Methylpyridin-3-yl)-3-(4-(pyridin-3-yl)-1H-pyrrolo[2,3-c]pyridin-2-yl)-1H-pyrazolo[4,3-b]pyridine]	424	8.84	10	149	–
Cc1ccncc1-c1ccc2[nH]nc(-c3cc4c(-c5cc(F)cc(CNS(C)(=O)=O)c5)cncc4[nH]3)c2n1 [Compound 481, N-(3-Fluoro-5-(2-(5-(4-methylpyridin-3-yl)-1H-pyrazolo[4,3-b]pyridin-3-yl)-1H-pyrrolo[2,3-c]pyridin-4-yl)benzyl)methanesulfonamide]	115	2.78	10	87	–
CN(C)Cc1cncc(-c2ccc3[nH]nc(-c4cc5c(-c6ccccc6F)cncc5[nH]4)c3n2)c1 [Compound 69, 1-(5-(3-(4-(2-Fluorophenyl)-1H-pyrrolo[2,3-c]pyridin-2-yl)-1H-pyrazolo [4,3-b]pyridin-5-yl)pyridin-3-yl)-N,N-dimethylmethanamine]	1150	0.557	30	51	–
CN(C)c1cncc(-c2ccc3[nH]nc(-c4cc5c(-c6cccc(F)c6)cncc5[nH]4)c3n2)c1 [Compound 7, 5-(3-(4-(3-Fluorophenyl)-1H-pyrrolo[2,3-c]pyridin-2-yl)-1H-pyrazolo[4,3-b]pyridin-5-yl)-N,N-dimethylpyridin-3-amine]	38	0.357	100	85	–

More lines, main results first:

EC50 (IL-6) [nM]	EC50 (SW480 colon cancer cells) [µM]	EC50 [1] [nM]	SMILES	Emax [1] [%]	inhibition at 10 µM (IL-6) [%]
2860	5.26	10	c1cc(-c2cncc3[nH]c(-c4n[nH]c5ccc(-c6cncc(CN7CCCCC7)c6)nc45)cc23)ccn1 [Compound 127, 5-(5-(Piperidin-1-ylmethyl)pyridin-3-yl)-3-(4-(pyridin-4-yl)-1H-pyrrolo[2,3-c]pyridin-2-yl)-1H-pyrazolo[4,3-b]pyridine]	97	–
380	4.86	–	FC1(F)CCN(Cc2cncc(-c3ccc4[nH]nc(-c5cc6c(-c7cccnc7)cncc6[nH]5)c4n3)c2)C1 [Compound 110, 5-(5-((3,3-Difluoropyrrolidin-1-yl)methyl)pyridin-3-yl)-3-(4-(pyridin-3-yl)-1H-pyrrolo[2,3-c]pyridin-2-yl)-1H-pyrazolo[4,3-b]pyridine]	23	–
> 10000	4.61	10	Fc1cccc(-c2cncc3[nH]c(-c4n[nH]c5ccc(-c6cncc(CN7CCCCC7)c6)nc45)cc23)c1 [Compound 15, 3-(4-(3-Fluorophenyl)-1H-pyrrolo[2,3-c]pyridin-2-yl)-5-(5-(piperidin-1-ylmethyl)pyridin-3-yl)-1H-pyrazolo[4,3-b]pyridine]	54	51.3
